From paper PMC8269059, “Glycyrrhizin Derivatives Suppress Cancer Chemoresistance by Inhibiting Progesterone Receptor Membrane Component 1” (Cancers, 2021)
Where two headings read alike, the source gives them in different places.

What was measured:
HCT116 cells = assay: Chemosensitivity MTT assay in HCT116 cells; format: cell-based, human; settings: Homo sapiens, HCT-116, HCT116 cell viability, MTT
Description: The HCT116 cells, a human colon cancer cell line, and HuH7 cells, a human hepatoma cell line, were maintained in Dulbecco’s modified Eagle’s medium (DMEM) containing 10% fetal bovine serum (FBS) and 1% penicillin-streptomycin at 37 °C in a 5% CO2 humidified incubator.
To analyze the chemosensitivity of HCT116 or HuH7 cells, the cells were incubated with erlotinib (20 µM) or CDDP (10 µM) and either GL or GL derivatives for 24 h on a 96-well plate. Cell viability was determined using an MTT assay kit (Millipore, Burlington, MA, USA) according to the manufacturer’s instructions.

[1] = test system: EGFR signaling (phosphorylation of EGFR, AKT, ERK); assay: EGF-induced EGFR signaling (western blot) in HCT116 cells; format: cell-based, human; settings: for EGF-induced phosphorylation of EGFR, AKT and ERK: HCT116, EGF 100 ng/mL for 5 min
Excerpt: […] Cells were lysed with RIPA buffer, and the lysates were subjected to SDS-PAGE and visualized through western blotting using antibodies against PGRMC1, EGFR, phospho-Y1068 EGFR, AKT, phospho-S473AKT, ERK, and phospho-T185 Y187 ERK.

EGFR kinase = biological target: T1, EGFR kinase (Homo sapiens, UniProt P00533); assay: EGFR kinase assay in vitro; format: biochemical; settings: Kinase-Glo, erlotinib 100nM
T1 construct: purchased BPS Bioscience
Description: The assay was performed using an EGFR kinase assay kit (BPS Bioscience, San Diego, CA, USA). EGFR kinase activity was analyzed by measuring the amount of ATP remaining following the kinase reaction based on luminescent intensity using Kinase-Glo MAX (Promega, Madison, WI, USA). A mixture of kinase buffer, ATP, and PTK substrate was incubated with EGFR (1 ng/µL) with or without GL or GlucoGL at 30 °C for 40 min. Kinase-Glo max was added to each well and incubated at room temperature for 15 min under light protection. Luminescent intensity was measured using a microplate reader.

[2] = test system: EGF uptake in HCT116 cells; assay: Alexa Fluor 488 EGF uptake in HCT116 cells; format: cell-based, human; settings: HCT116, microscopy and flow cytometry, 5 min, vs control cells
Description: (§1) For the analysis of EGF and LDL uptake, HCT116 cells were incubated with serum-free DMEM supplemented with Alexa Fluor 488 EGF complex or Alexa Fluor 488 acetylated LDL to a final concentration of 1 µg/L at 37 °C for 5 min. For immunofluorescence microscopy analyses, HCT116 cells treated with Alexa Fluor 488-labeled EGF or LDL were fixed with 4% paraformaldehyde for 20 min and incubated in 10 mg/L DAPI for 15 min. The cells were observed using a BZ-x800 fluorescence microscope (Keyence, IL, USA). For flow cytometry analysis, HCT116 cells treated with Alexa Fluor 488-labeled EGF or LDL were detached using trypsin/EDTA and suspended in PBS. The mean fluorescent intensity per 10,000 cells was analyzed using a flow cytometer (Gallios, Beckman Coulter Life Science, Pasadena, CA, USA). The data were analyzed using Kaluza 2.1 analysis software (Beckman Coulter Life Science).

[3] = biological target: T2, interaction between PGRMC1 and LDLR (Homo sapiens, UniProt O00264); assay: Co-immunoprecipitation of PGRMC1 and LDLR in HCT116 cells; format: cell-based; settings: HCT116, FLAG-PGRMC1 co-IP, 12 h treatment
T2 construct: mammalian FLAG-tagged expression vector pCMV-FLAG-PGRMC1 (full-length); expressed in transfected cells; host or cells: HCT116
Description: (§2) An expression vector of pCMV-3xFLAG-PGRMC1 or an empty vector was transfected into HCT116 cells or HuH7 cells using the transfection reagent Lipofectamine 2000 (Invitrogen). The cells were incubated overnight with either GL or GlucoGL. Cells were then lysed with NP40 lysis buffer (20 mM Tris-HCl [pH 7.5], 150 mM NaCl, and 1% NP40). The lysates were incubated with 10 μL of equilibrated anti-FLAG (M2) agarose for 60 min at room temperature. Bound proteins were washed three times and subjected to SDS-PAGE and visualized through western blotting using antibodies against FLAG, EGFR, and LDLR. For analysis of the endogenous PGRMC1-binding with FLAG-PGRMC1, HCT116 cells (1 × 10^7 cells) were treated with vehicle or 250 μM SA and/or 10 μM hemin for 48 h, and the cell lysates were co-immunoprecipitated with anti-FLAG (M2) agarose. Bound proteins (endogenous PGRMC1 and FLAG-tagged PGRMC1) were visualized through western blotting using antibody against PGRMC1.

[4] = test system: LDL uptake in HCT116 cells; assay: Alexa Fluor 488-labelled LDL uptake in HCT116 cells; format: cell-based, human; settings: HCT116, microscopy and flow cytometry, 5 min
Description: as §1

[5] = biological target: T3, interaction between PGRMC1 and CYP3A4 (Homo sapiens, UniProt O00264); assay: In vitro binding assay between PGRMC1 and CYP3A4; settings: purified proteins, co-IP
T3 construct: FLAG-PGRMC1 (a.a. 44-195); Sigma (CYP3A4 only) C4982 (CYP3A4 only)
Description: For in vitro binding assays between PGRMC1 and CYP3A4, 1 μg of purified CYP3A4 proteins (Sigma: C4982) were incubated with 10 μg of FLAG-PGRMC1 (a.a. 44-195) treated with or without GL or GlucoGL in 500 μL of binding buffer containing 20 mM HEPES-NaOH (pH 7.9), 100 mM NaCl, 0.2 mM EDTA, 10% glycerol, and 0.1% NP40 for 60 min at room temperature. Then, 10 μL of equilibrated anti-FLAG (M2) agarose was added to the mixture, which was then incubated for 60 min at room temperature. Bound proteins were washed three times with 200 μL of binding buffer and eluted with 10 μL of 2 μg/mL FLAG elution peptide (Sigma: F4799). The eluates were subjected to SDS–PAGE and visualized by Western blotting using antibodies against CYP3A4 (Santa Cruz: sc-53850) and FLAG.

HCT116 cells xenograft = assay: HCT116 xenograft in nude mice; format: in vivo, mouse; settings: i.p. twice a week, vs control; for Tumor volume, in combination with CDDP: CDDP 2 mg/kg plus GL 400 mg/kg (day 22) or GlucoGL 100 mg/kg (from day 15)
Description: All protocols for animal experiments in this study were approved by the Experimental Animal Committee of Keio University School of Medicine (approval number: 08024-(13), approval date: 30 September 2020). HCT116 cells (2 × 10^6 cells/mouse) with half of Matrigel (Corning, NY, USA) were transplanted subcutaneously into the flank of 7-week-old nude mice. Four days after the transplantation, tumor size was measured in three dimensions with calipers and grouped by tumor volume. CDDP (2 mg/kg), GL (400 mg/kg), or GlucoGL (100 mg/kg) were administered to the mice intraperitoneally, and the tumor volume was measured twice a week for 22 days.

PGRMC1-PGRMC1 binding = biological target: T4, PGRMC1-PGRMC1 binding (Homo sapiens, UniProt O00264); assay: Co-immunoprecipitation of endogenous PGRMC1 with FLAG-PGRMC1 in HCT116 cells; format: cell-based; settings: HCT116, co-IP of endogenous PGRMC1 with FLAG-PGRMC1, GL 12 hr
T4 construct: mammalian FLAG-tagged expression vector pCMV-FLAG-PGRMC1 (full-length); Endogenous PGRMC1 (25 kDa) was co-immunoprecipitated; expressed in transfected cells; host or cells: HCT116
Description: as §2

[6] = with CDDP (10 µM), read-out: IC50 CDDP
[7] = with erlotinib (20 µM), read-out: IC50 Erlotinib

T2 sequence (O00264 whole entry): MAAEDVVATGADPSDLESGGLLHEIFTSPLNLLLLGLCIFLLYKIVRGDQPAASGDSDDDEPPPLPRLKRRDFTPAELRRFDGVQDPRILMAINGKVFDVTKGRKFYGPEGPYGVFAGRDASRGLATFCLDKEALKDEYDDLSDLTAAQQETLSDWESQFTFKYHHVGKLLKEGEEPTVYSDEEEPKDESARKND
T3 sequence (O00264 44-195): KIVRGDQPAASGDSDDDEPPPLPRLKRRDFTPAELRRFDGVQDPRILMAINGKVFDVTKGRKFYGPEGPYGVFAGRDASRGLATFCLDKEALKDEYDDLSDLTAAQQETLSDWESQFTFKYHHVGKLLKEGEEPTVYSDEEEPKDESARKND
T1 sequence (P00533 25-1210): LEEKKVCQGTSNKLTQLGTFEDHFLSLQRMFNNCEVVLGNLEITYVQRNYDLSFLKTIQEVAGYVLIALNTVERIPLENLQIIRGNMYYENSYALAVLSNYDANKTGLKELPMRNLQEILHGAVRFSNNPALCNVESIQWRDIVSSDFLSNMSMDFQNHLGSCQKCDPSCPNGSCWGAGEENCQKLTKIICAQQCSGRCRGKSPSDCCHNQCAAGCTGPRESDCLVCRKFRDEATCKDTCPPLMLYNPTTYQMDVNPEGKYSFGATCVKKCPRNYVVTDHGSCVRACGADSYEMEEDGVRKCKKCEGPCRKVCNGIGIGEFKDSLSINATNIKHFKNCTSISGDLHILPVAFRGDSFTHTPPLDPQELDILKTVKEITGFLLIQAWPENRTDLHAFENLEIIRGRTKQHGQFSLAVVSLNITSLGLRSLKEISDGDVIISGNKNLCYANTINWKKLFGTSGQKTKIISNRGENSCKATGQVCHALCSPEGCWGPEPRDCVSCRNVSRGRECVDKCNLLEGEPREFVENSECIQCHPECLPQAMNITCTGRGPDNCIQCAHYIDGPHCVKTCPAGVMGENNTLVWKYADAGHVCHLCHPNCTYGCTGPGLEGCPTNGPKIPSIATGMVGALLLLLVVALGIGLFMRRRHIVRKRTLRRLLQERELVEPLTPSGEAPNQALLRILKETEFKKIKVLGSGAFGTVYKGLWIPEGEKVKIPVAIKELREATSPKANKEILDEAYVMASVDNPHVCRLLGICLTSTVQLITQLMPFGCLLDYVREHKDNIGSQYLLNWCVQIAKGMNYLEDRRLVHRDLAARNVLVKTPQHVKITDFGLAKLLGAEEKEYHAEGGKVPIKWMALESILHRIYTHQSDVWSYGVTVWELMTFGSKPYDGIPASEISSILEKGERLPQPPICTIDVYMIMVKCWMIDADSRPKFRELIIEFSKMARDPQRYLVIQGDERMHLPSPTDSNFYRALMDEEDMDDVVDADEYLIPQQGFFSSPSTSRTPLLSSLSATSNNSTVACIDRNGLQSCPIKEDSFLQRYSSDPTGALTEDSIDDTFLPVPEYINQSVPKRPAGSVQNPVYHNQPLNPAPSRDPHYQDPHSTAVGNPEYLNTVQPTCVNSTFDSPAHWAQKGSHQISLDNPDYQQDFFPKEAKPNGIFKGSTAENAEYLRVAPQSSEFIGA
T4 sequence (O00264 whole entry): as the sequence (O00264 whole entry) above
T4 sequence (O00264 whole entry): as above

IC50 (HCT116 cells; [6]) | IC50 (HCT116 cells; [7]) | EGFR kinase activity (EGFR kinase) | Interaction between PGRMC1 and LDLR [3] | Interaction between PGRMC1 and CYP3A4 [5] | PGRMC1-PGRMC1 binding (PGRMC1-PGRMC1 binding) | Structure (SMILES) | EGF-induced phosphorylation of EGFR, AKT and ERK [1] | Uptake of labelled EGF [2] | Labelled-LDL uptake [4] | Tumor volume, administered individually (HCT116 cells xenograft; 22 days, CDDP 2 mg/kg, GL 400 mg/kg) | Tumor volume, in combination with CDDP (HCT116 cells xenograft) | EGF signaling, time-course ([1]; HCT116, early phase of EGF stimulation (5 or 10 min))
53.1 µM | 52 µM | no inhibitory effect | inhibited | interfered with the interaction | did not affect | CC1(C)[C@@H](O[C@H]2O[C@H](C(=O)O)[C@@H](O)[C@H](O)[C@H]2O[C@@H]2O[C@H](C(=O)O)[C@@H](O)[C@H](O)[C@H]2O)CC[C@]2(C)[C@H]3C(=O)C=C4[C@@H]5C[C@@](C)(C(=O)O)CC[C@]5(C)CC[C@@]4(C)[C@]3(C)CC[C@@H]12 [Glycyrrhizin (GL), Glycyrrhizin] | significantly suppressed | significantly suppressed | significantly suppressed | no differences in tumor volume | significantly smaller | –
14.9 µM | 15.7 µM | no inhibitory effect | inhibited this interaction more potently | interfered with the interaction | – | CC1(C(=O)O)CCC2(C)CCC3(C)C(=CC(=O)C4C5(C)CCC(OC6OC(C(=O)O)C(O)C(O)C6OC6OC(CO)C(O)C(O)C6O)C(C)(C)C5CCC43C)C2C1 (stereo not drawn) [Glucoglycyrrhizin (GlucoGL), Glucoglycyrrhizin] | significantly suppressed | significantly suppressed | significantly suppressed | – | significantly suppressed the tumor volume | remarkable inhibitory effect
